For orientation: Kd means the equilibrium constant for the complex coming apart.

Values joined by “and” are separate entries in the source; they are usually repeats but may differ in a detail not shown here. Equal values may be shown once. Read-outs that look alike come from different tables or passages of the source.

The results in this text go back to paper PMC7756341, “Liposomal FRET Assay Identifies Potent Drug‐Like Inhibitors of the Ceramide Transport Protein (CERT)” (Chemistry (Weinheim an Der Bergstrasse, Germany), 2020).

This assay concerns the target T1, START domain of human CERT (Homo sapiens, UniProt Q9Y5P4).
T1 construct: The START domain of hCERT was expressed has a His6-SUMO fusion protein [2]; His6-SUMO (N, cleaved yes); made in house; host or cells: E. coli BL21(DE3), pQE-based plasmid
T1 sequence (Q9Y5P4 347-598 isoform Q9Y5P4-2 limits assumed): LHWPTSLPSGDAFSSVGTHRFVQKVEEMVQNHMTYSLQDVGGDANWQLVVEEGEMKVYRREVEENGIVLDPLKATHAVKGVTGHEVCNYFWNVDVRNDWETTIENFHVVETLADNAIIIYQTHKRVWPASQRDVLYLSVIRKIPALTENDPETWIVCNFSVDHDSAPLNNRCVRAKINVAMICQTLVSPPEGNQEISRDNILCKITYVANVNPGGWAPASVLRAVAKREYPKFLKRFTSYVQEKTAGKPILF
Description: Microscale thermophoresis (MST) binding assay. The settings on record: for Kd: fluorescently labeled START domain 50 nM. The method, then: 1.2 Expression and purification of the START domain of human CERT
The START domain of hCERT was expressed has a His6-SUMO fusion protein [2]. The pQE-based plasmid harboring the genetic information of His6-SUMO-START was transformed into E. coli BL21(DE3) by following the standard heat shock method. Colonies were grown on carbenicillin ([…]) and 1% glucose supplemented Luria–Bertani (LB) agar plates. A single colony was used to inoculate 20 ml of pre-culture 1 % of which was then used to inoculate 500 ml of LB medium ([…] carbenicillin, 10 mM glucose, 37 °C, 160 rpm). Upon reaching OD600 = 0.8, the culture was induced with 500 μM IPTG (isopropyl-β-d-thiogalactoside) and cells were incubated for 16 h with continuous shaking at 160 rpm. The cells were harvested by centrifugation […]
For purification of the protein, the cell pellet was re-suspended in lysis buffer (25 mM Tris/HCl, pH 7.4, 270 mM Sucrose, 1% Triton X-100, 2.5 mM dithiothreitol (DTT), Protease/Phosphatase inhibitor) on ice. Cells were disrupted using an EmulsiFlex-C3 instrument (Avestin Inc.; CANADA). The lysate was cleared by centrifugation, and the supernatant was loaded onto a Ni– NTA column (Qiagen). The protein was washed with loading buffer pH 7.4 (50 mM Na2HPO4, 50 mM NaH2PO4, 150 mM NaCl, 2,5 mM DTT) containing 20 mM imidazole and eluted with elution […]
mM imidazole. Fractions containing the protein of interest according to SDS-PAGE were pooled and digested with Ubiquitin-like-protein specific protease 1 (ULP1). The by-products (His6-SUMO and ULP1) were removed in a second IMAC step, and the target protein was subjected to a final purification by gel filtration on a superdex 200 16/600 prep grade column equilibrated with loading buffer pH 7.4 (50 mM Na2HPO4, 50 mM NaH2PO4, 150 mM NaCl, 2.5 mM DTT). The monomeric form of the START domain of hCERT was collected. The final concentration of the protein was determined via UV-Visible spectrophotometry (Varian Cary 50) at 280 nm using a calculated extinction coefficient of 50420 (M-1 cm-1).
4. Microscale Thermophoresis (MST) assays
4.1 Labeling of the START domain with a fluorophore dye
In order to perform MST assays, the START domain was coupled with a commercially available fluorophore dye (NT647 (NanoTemper Technologies, Munich, Germany)) following standard procedures provided in the manufacturer's protocol. Briefly, 10 µM of the START domain was labeled with 30 µM of the fluorophore in NHS-LB buffer kept in the dark for 30min. Any excess of the dye was removed via size exclusion chromatography on a Sephadex G25 column (GE Healthcare). The concentration of the labeled protein was determined by UV-VIS spectrophotometry at 280 nm (Varian Cary 50).
4.2 Preparation of the dilution series and MST assay
Dilution series of small-molecule ligands were prepared from stock solutions in DMSO. In case of 6B11 and 17C9, ligands were then diluted into MST buffer (50 mM Na-phosphate, 150 mM NaCl, 2.5 mM DTT, 0.05% Tween-20) to a concentration 2-fold higher than the maximum concentration used in the assay. The concentration of DMSO was kept constant in all dilutions. 16 dilutions of the ligands were prepared in micro reaction tubes by successive 1:1 dilutions with […]
solubility problems. To this end, first, a dilution series in pure DMSO was generated. The individual dilutions were then further diluted 20-fold with MST buffer to a ligand concentration 2-fold higher than its final concentration. As a final step, 10 μL of the fluorescently labeled START domain was added to all reaction tubes containing 10 μL of ligand solution. The final concentration of START domain was 50 nM. After mixing, 2-3 μL of the reaction mixture were filled into standard capillaries (Nanotemper Technologies).
MST measurements were performed with a Monolith NT.115 instrument (Nanotemper Technologies). All ligands were measured as triplicates. 40% MST excitation power was set and, depending on the labeled protein concentration used in the assay, between 5% to 20% of LED […]

Turning to `O=C(NC1CCN(CCCCC2(C(=O)NCC(F)(F)F)c3ccccc3-c3ccccc32)CC1)c1ccccc1-c1ccc(C(F)(F)F)cc1` [8E8, lomitapide], the Kd (read-out: KD) is ~5 µM and 6.77 µM.

Turning to `CCCCCCCCCCCC(=O)NC(CO)CC(O)c1ccccc1` (stereo not drawn) [HPA-12, N-(3Hydroxy-1-hydroxymethyl-3-phenylpropyl)-dodecamide], the Kd reads like this: (listed as HPA‐12, read-out: KD) about 0.04 µM; (read-out: KD) 0.0415 µM.

As for `CCCC(=O)OCOC(=O)C1=C(C)NC(C)=C(C(=O)OC)C1c1cccc(Cl)c1Cl` (stereo not drawn) [6B11, Clevidipine butyrate], the Kd (read-out: KD) was ~5 µM and 2.32 µM.

For `Cc1cc(C2=NOC(c3cc(Cl)cc(Cl)c3)(C(F)(F)F)C2)ccc1C(=O)NCC(=O)NCC(F)(F)F` (stereo not drawn) [20D5, Fluralaner], the Kd (KD) is ~150 µM and 153 µM.

For the compound `CC1=NN(c2ccc(C)c(C)c2)C(=O)/C1=N\Nc1cccc(-c2cccc(C(=O)O)c2)c1O` [17C9, Eltrombopag], the “binding confirmed by MST” value (labeled START domain) was “confirmed binding for all compounds except 17C9”.
